Square brackets hold non-standard residues; d marks the D form. Peptide text beside a SMILES is read from it. * marks the point of attachment. Phe(ol) = N[C@H](CO)Cc1ccccc1; X1 = OC[C@H](Cc1cccc(F)c1)N*; X2 = OC[C@H](Cc1ccccc1F)N*; Aib = CC(C)(N)C(=O)O
How the values were obtained:
OVCAR-3 = test: Cytotoxicity against human OVCAR3 cells assessed as decrease in cell viability after 72 hrs by CellTiter 96 AQueous one solution cell proliferation assay; type: functional, cell-based; details: OVCAR-3, 72 h
MDA-MB-435 = test: Cytotoxicity against human MDA-MB-435 cells assessed as decrease in cell viability after 72 hrs by CellTiter 96 AQueous one solution cell proliferation assay; type: functional, cell-based; details: MDA-MB-435, 72 h
MDA-MB-231 = test: Cytotoxicity against human MDA-MB-231 cells assessed as decrease in cell viability after 72 hrs by CellTiter 96 AQueous one solution cell proliferation assay; details: MDA-MB-231, 72 h

Compound | IC50 (OVCAR-3) [µM] | IC50 (MDA-MB-435) [µM] | IC50 (MDA-MB-231) [µM]
CC(=O)NC(C)(C)C(=O)N[C@@H](C)C(=O)NC(C)(C)C(=O)N[C@@H](C)C(=O)NC(C)(C)C(=O)N[C@@H](C)C(=O)N[C@@H](CCC(N)=O)C(=O)NC(C)(C)C(=O)N[C@H](C(=O)NC(C)(C)C(=O)NCC(=O)N[C@@H](CC(C)C)C(=O)NC(C)(C)C(=O)N1CCC[C@H]1C(=O)N[C@H](C(=O)NC(C)(C)C(=O)NC(C)(C)C(=O)N[C@@H](CCC(N)=O)C(=O)N[C@@H](CCC(N)=O)C(=O)N[C@H](CO)Cc1cccc(F)c1)C(C)C)C(C)C (Ac-[Aib]A[Aib]A[Aib]AQ[Aib]V[Aib]GL[Aib]PV[Aib][Aib]QQ-X1) | 4.4 |  | 
CC(=O)NC(C)(C)C(=O)N[C@@H](C)C(=O)NC(C)(C)C(=O)N[C@@H](C)C(=O)NC(C)(C)C(=O)N[C@@H](C)C(=O)N[C@@H](CCC(N)=O)C(=O)NC(C)(C)C(=O)N[C@H](C(=O)NC(C)(C)C(=O)NCC(=O)N[C@@H](CC(C)C)C(=O)NC(C)(C)C(=O)N1CCC[C@H]1C(=O)N[C@H](C(=O)NC(C)(C)C(=O)NC(C)(C)C(=O)N[C@@H](CCC(N)=O)C(=O)N[C@@H](CCC(N)=O)C(=O)N[C@H](CO)Cc1ccccc1F)C(C)C)C(C)C (Ac-[Aib]A[Aib]A[Aib]AQ[Aib]V[Aib]GL[Aib]PV[Aib][Aib]QQ-X2) | 5 |  | 
CC(=O)NC(C)(C)C(=O)N[C@@H](C)C(=O)NC(C)(C)C(=O)N[C@@H](C)C(=O)NC(C)(C)C(=O)N[C@@H](C)C(=O)N[C@@H](CCC(N)=O)C(=O)NC(C)(C)C(=O)N[C@H](C(=O)NC(C)(C)C(=O)NCC(=O)N[C@@H](CC(C)C)C(=O)NC(C)(C)C(=O)N1CCC[C@H]1C(=O)N[C@H](C(=O)NC(C)(C)C(=O)NC(C)(C)C(=O)N[C@@H](CCC(N)=O)C(=O)N[C@@H](CCC(N)=O)C(=O)N[C@H](CO)Cc1ccccc1)C(C)C)C(C)C (Ac-[Aib]A[Aib]A[Aib]AQ[Aib]V[Aib]GL[Aib]PV[Aib][Aib]QQ[Phe(ol)]) | 5.1 | 4.8 | 5.1
CC(=O)O[C@H]1C(=O)[C@@]2(C)[C@H]([C@H](OC(=O)c3ccccc3)[C@]3(O)C[C@H](OC(=O)[C@H](O)[C@@H](NC(=O)c4ccccc4)c4ccccc4)C(C)=C1C3(C)C)[C@]1(OC(C)=O)CO[C@@H]1C[C@@H]2O [PACLITAXEL] | 0.002 |  | 
